{"source": "patent US20110306570A1", "about": "“Na/K-Atpase Expression as an Indicator for the Treatment of Cancer” (UNIVERSITY OF TOLEDO, priority 2008, published 2011)", "key": {"[1]": {"tested_on": "LLC-PK1 cells", "experiment": "Cell growth curve (cell counting), LLC-PK1 cells", "format": "cell-based, pig", "conditions": "10 and 50 nM ouabain", "experimental": "(§1) FIG. 1B: The above three cell lines were subcultured in 12-well plates (50,000 cells/well) and serum starved.\n(§2) Cell growth curve and cell cycle measurement: Cells were sub-cultured in 12 well plates at 50,000/well in 1 ml culture medium for 24 h. […] At each indicated time point, three wells of control or treated cells were trypsinized and counted. For cell cycle measurement, cells were trypsinized and re-suspended in Citrate buffer (8.55% sucrose, 1.18% Na citrated, 5% DMSO, pH 7.6), and stained with propidium iodide (PI). The stained cells were then analyzed by Flow Cytometry."}, "[2]": {"biological_target": "T1, Na/K-ATPase α1 (Homo sapiens, UniProt P05023)", "experiment": "Na/K-ATPase α1 degradation with cycloheximide, BT-20 cells", "format": "cell-based", "set-up": "endogenous in cells; host or cells: BT20", "conditions": "cycloheximide pre-treatment, 10 nM ouabain for 6, 16 and 24 h", "experimental": "FIG. 6C: BT20 cells were treated as in panel B and assayed for Na/K-ATPase α1. *p<0.05."}, "[3]": {"tested_on": "BT20 cells", "experiment": "MTT cell growth assay, BT20 cells", "format": "cell-based, human", "conditions": "24 h", "experimental": "FIG. 1A: LLC-PK1 cells, BT20 cells, and DU145 cells were subcultured in 96-well plates (10,000 cells/well) and serum starved. […] Cells were solublized by adding 100 μl/well detergent provided by ATCC after 90 min of incubation and OD570 was then measured.\n(§3) MTT assay for measuring cell proliferation: Cells were sub-cultured in 96 well plates at 10,000 cells/well in 100 μl culture medium. […] Ten μl MTT reagent (3-4,5-dimethylthiazol-2-yl)-2,5-diphenyltetrazolium bromide) was added to each well for 90 min. The formazan crystal was dissolved with detergent and the OD value was measured at 570 nm."}, "[4]": {"tested_on": "PY-17 cells", "experiment": "MTT cell growth assay, Na/K-ATPase knock-down PY-17 cells", "format": "cell-based, pig", "experimental": "FIG. 3B: The Na/K-ATPase knock-down cells (PY17) were treated with different digitalis compounds and the cell growth was measured by MTT assay.\nas §3"}, "[5]": {"biological_target": "T1, Na/K-ATPase α1", "experiment": "Na/K-ATPase α1 expression, MDA-MB-435s cells", "format": "cell-based", "set-up": "endogenous in cells; host or cells: MDA-MB-435s", "conditions": "5 nM ouabain, 24 h, N=3, P<0.05", "text": "A significant reduction in α1 expression was detected (82±2% of control, N=3, P<0.05). Thus, ouabain-induced changes in α1 expression are clearly correlated with its effects on cell growth."}, "[6]": {"biological_target": "T2, Na/K-ATPase in the plasma membrane (Homo sapiens, UniProt P05023)", "experiment": "3H-ouabain binding after ouabain pre-treatment, BT20 cells", "format": "cell-based", "set-up": "endogenous in cells; host or cells: BT20 (intact cells)", "conditions": "ouabain 72 h", "experimental": "(§4) The cells were washed and 3H-ouabain were performed as described herein. * p<0.05, ** p<0.01\n(§5) To assess the functional consequence of these changes in α1 expression, the inventors measured the number of functional Na/K-ATPase in the plasma membrane.\n(§6) Afterwards, cells were washed with serum-free medium and subjected to 3H-ouabain binding assay. Briefly, cells were incubated in K+-free Kreb's solution (NaCl 137 mM; KCl 0 mM; CaCl2 2.8 mM; NaH2PO4 0.6 mM; MgSO4 1.2 mM; dextrose; 10 mM; Tris 15 mM; pH7.4) for 15 min, and then exposed to 100 nM 3H-ouabain for 30 min at 37° C. At the end of incubation, the cells were washed 3 times with ice-cold K+-free Kreb's solution, solubilized in 0.1M NaOH-0.2% SDS, and counted in a scintillation counter for 3H-ouabain. […] Paralleled plates were used for counting cell numbers. 3H-ouabain binding data were calculated as binding sites per cell."}, "[7]": {"tested_on": "Akt", "experiment": "Akt phosphorylation (pAkt) by Western blot, C2-9 cells", "format": "cell-based, pig", "conditions": "ouabain 15 min", "experimental": "The cell lysates were analyzed for pAkt."}, "[8]": {"biological_target": "T3, Na/K-ATPase α1 (Sus scrofa, UniProt P05024)", "T3 construct": "endogenous in cells; host or cells: LLC-PK1 (ATCC) and its caveolin-1 knock-down line C2-9", "experiment": "Na/K-ATPase α1 expression by Western blot, LLC-PK1 cells", "format": "cell-based, pig", "experimental": "FIG. 7A: LLC-PK1 cells were pre-treated with 10 nM rapamycin or 50 μM LY294002 for 30 min. […] The cell lysates were analyzed for Na/K-ATPase α1 using Western blot."}, "[9]": {"tested_on": "BT20 cells", "experiment": "Cell growth curve (cell counting), BT20 cells", "format": "cell-based, human", "experimental": "as §1, §2"}, "[10]": {"tested_on": "DU145 cells", "experiment": "Cell growth curve (cell counting), DU145 cells", "format": "cell-based, human", "conditions": "10 nM ouabain", "experimental": "as §1, §2"}, "[11]": {"tested_on": "Akt", "experiment": "Akt phosphorylation (pAkt) by Western blot, LLC-PK1 cells", "format": "cell-based, pig", "conditions": "ouabain 15 min"}, "[12]": {"biological_target": "T2, Na/K-ATPase in the plasma membrane", "experiment": "3H-ouabain binding after ouabain pre-treatment, DU145 cells", "format": "cell-based", "set-up": "endogenous in cells", "conditions": "ouabain 72 h", "experimental": "as §4, §5, §6"}, "[13]": {"biological_target": "T1, Na/K-ATPase α1", "experiment": "Na/K-ATPase α1 endocytosis by confocal immunostaining, BT20 cells", "format": "cell-based", "set-up": "endogenous in cells; host or cells: BT20", "conditions": "10 nM ouabain", "experimental": "Na/K-ATPase al was immunostained and visualized using Leica confocal microscope. The red arrows indicate the endocytosed vesicles containing Na/K-ATPase α1.\nThe cells were fixed with ice-cold methanol for 15 min and blocked with Signal Enhancer from Invitrogen. Monoclonal anti-Na/K-ATPase α1 antibody was then incubated with the cells overnight at 4° C. After 3 washes, a secondary Alexa 488-conjugated anti-mouse antibody was added and incubated for 2 h at room temperature. The coverslip was washed, mounted and imaged using a Leica confocal microscope."}, "[14]": {"biological_target": "T3, Na/K-ATPase α1", "experiment": "Na/K-ATPase α1 degradation with cycloheximide, LLC-PK1 cells", "format": "cell-based, pig", "conditions": "cycloheximide pre-treatment, 10 nM ouabain for 6, 16 and 24 h", "text": "Cells without any treatment or only treated with CHX were used as control. The cells were collected at different time points and lysed in RIPA buffer. Equal amount of protein was loaded to analyze the Na/K-ATPase by Western blot. The representative Western blot and the quantification data from 4 experiments were shown. The Na/K-ATPase α1 amount at each time point was normalized against the control at the same time point."}, "[15]": {"tested_on": "P-11 cells (control vector-transfected LLC-PK1)", "experiment": "MTT cell growth assay, control P-11 cells", "format": "cell-based, pig", "conditions": "ouabain 1 to 10 nM, 16 h", "experimental": "as §3"}, "[16]": {"tested_on": "C2-9 cells", "experiment": "MTT cell growth assay, caveolin-1 knock-down C2-9 cells", "format": "cell-based, pig", "conditions": "C2-9 caveolin-1 knockdown cells", "experimental": "as §3"}}, "note": "“Also recorded” adds a separate entry of the source."}
{"smiles": "C[C@@H]1O[C@@H](O[C@H]2C[C@@H](O)[C@]3(CO)[C@H]4[C@H](O)C[C@]5(C)[C@@H](C6=CC(=O)OC6)CC[C@]5(O)[C@@H]4CC[C@]3(O)C2)[C@H](O)[C@H](O)[C@H]1O", "note": "[ouabain]", "values": [{"measurement": "cell number as a function of time", "setting": "[1]", "value": "increased the number of LLC-PK1 cells in a time-dependent manner"}, {"measurement": "degradation of Na/K-ATPase α1 subunit", "setting": "[2]", "value": "more degradation of al subunit; also recorded: more degradation of the a1 subunit"}, {"measurement": "effect on cell growth (MTT)", "setting": "[3]; 10-50 nM ouabain", "value": "significant inhibition of cell growth"}, {"measurement": "stimulatory effect on cell growth (MTT)", "setting": "[3]; different concentrations of ouabain", "value": "failed to detect any stimulatory effect"}, {"measurement": "growth stimulation (MTT)", "setting": "[4]; PY17 cells, ouabain, 16 h", "value": "No growth stimulation was detected"}, {"measurement": "reduction in cell growth (MTT)", "setting": "[4]; PY-17 cells, 10 nM ouabain", "value": "more than 30%"}, {"measurement": "Na/K-ATPase α1 expression", "setting": "[5]", "value": "82±2 % of control"}, {"measurement": "surface active Na/K-ATPase (3H-ouabain binding)", "setting": "[6]", "value": "significant decrease in surface active Na/K-ATPase"}, {"measurement": "Akt stimulation (pAkt)", "setting": "[7]", "value": "failed to stimulate Akt"}, {"measurement": "α1 expression with ouabain in the presence of rapamycin", "setting": "[8]; 10 nM rapamycin pre-treatment, 10 nM ouabain 24 h", "value": "further decrease in the expression of al; also recorded: further decrease in the expression of a1"}, {"measurement": "Na/K-ATPase α1 expression", "setting": "[8]; ouabain 24 h or 72 h exposure", "value": "induction of α1 expression"}, {"measurement": "block of cell growth (cell counting)", "setting": "[9]; 50 nM ouabain", "value": "completely block the growth"}, {"measurement": "cell number as a function of time", "setting": "[9]; 10 and 50 nM ouabain", "value": "significantly reduced the number of BT20 cells"}, {"measurement": "block of cell growth (cell counting)", "setting": "[10]", "value": "completely block the growth"}, {"measurement": "Akt phosphorylation", "setting": "[11]", "value": "stimulated Akt phosphorylation"}, {"measurement": "surface active Na/K-ATPase (3H-ouabain binding)", "setting": "[12]", "value": "significant decrease in surface active Na/K-ATPase"}, {"measurement": "endocytosis of Na/K-ATPase α1 (α1-positive vesicles)", "setting": "[13]", "value": "many al-positive vesicles were accumulated"}, {"measurement": "degradation of Na/K-ATPase α1 subunit", "setting": "[14]", "value": "more degradation of al subunit; also recorded: more degradation of the a1 subunit"}, {"measurement": "effect on cell growth (MTT)", "setting": "[15]", "value": "stimulated the cell growth"}, {"measurement": "ouabain-induced cell growth response (MTT)", "setting": "[16]", "value": "abolished ouabain-induced cell growth stimulation"}]}
